The test system of experiment [1] is A549. Briefly: Induction of apoptosis in human A549 assessed as viable cells at 1 uM after 24 to 48 hrs by Annexin V/propidium iodide staining-based flow cytometric analysis (reference value: 98.5%). The experiment is classed as functional. Particulars: read-out: Activity. For orientation: A flow cytometer gives signals particle by particle.
Experiment [2] concerns A549. Nature of the experiment: Induction of apoptosis in human A549 assessed as early apoptotic cells at 2 uM after 24 to 48 hrs by Annexin V/propidium iodide staining-based flow cytometric analysis (reference value: 0.79%). The experiment is classed as functional.
For experiment [3], the system named is A549. Briefly: Induction of apoptosis in human A549 assessed as necrotic cells at 1 uM after 24 to 48 hrs by Annexin V/propidium iodide staining-based flow cytometric analysis (reference value: 0.16%). The experiment is classed as functional.
For experiment [4], the system named is MCF7. Nature of the experiment: Cytotoxicity against human MCF7 assessed as reduction in cell viability after 48 hrs by MTT assay. The experiment is classed as functional, cell-based. To be noted: MCF7, 48 h.
In experiment [5] the test system is A549. Nature of the experiment: Induction of apoptosis in human A549 assessed as viable cells at 2 uM after 24 to 48 hrs by Annexin V/propidium iodide staining-based flow cytometric analysis (reference value: 98.5%). Particulars: read-out: Activity. The class given is functional.
Experiment [6] relates to A549. Nature of the experiment: Induction of apoptosis in human A549 assessed as early apoptotic cells after 24 to 48 hrs by Annexin V/propidium iodide staining-based flow cytometric analysis. The class given is functional, cell-based.
For experiment [7], the system named is A549. Nature of the experiment: Induction of apoptosis in human A549 assessed as early apoptotic cells at 1 uM after 24 to 48 hrs by Annexin V/propidium iodide staining-based flow cytometric analysis (reference value: 0.79%). The class given is functional.
Experiment [8] deals with HeLa. Nature of the experiment: Cytotoxicity against human HeLa assessed as reduction in cell viability after 48 hrs by MTT assay. The class given is functional, cell-based.
Experiment [9] deals with L02. Briefly: Cytotoxicity against human L02 assessed as reduction in cell viability after 48 hrs by MTT assay. The class given is cell-based. To be noted: L02, 48 h.
The subject of experiment [10] is HCT-116. Briefly: Cytotoxicity against human HCT116 assessed as reduction in cell viability after 48 hrs by MTT assay. To be noted: HCT-116, 48 h. The class given is functional, cell-based.
Experiment [11] has as its system A549. Nature of the experiment: Induction of apoptosis in human A549 assessed as late apoptotic cells at 2 uM after 24 to 48 hrs by Annexin V/propidium iodide staining-based flow cytometric analysis (reference value: 0.54%). The experiment is classed as functional.
Experiment [12] has as its system A549. Nature of the experiment: Induction of apoptosis in human A549 assessed as necrotic cells at 2 uM after 24 to 48 hrs by Annexin V/propidium iodide staining-based flow cytometric analysis (reference value: 0.16%). The experiment is classed as functional.
Experiment [13] deals with SGC-7901. Briefly: Cytotoxicity against human SGC7901 assessed as reduction in cell viability after 48 hrs by MTT assay. The class given is functional, cell-based. To be noted: SGC-7901, 48 h. In general terms: Tetrazolium assays rely on reduction of a dye to a coloured formazan, in cell work by metabolically active cells.
Experiment [14] concerns A549. Nature of the experiment: Cytotoxicity against human A549 assessed as reduction in cell viability after 48 hrs by MTT assay. The class given is functional, cell-based. To be noted: A549, 48 h.
In experiment [15] the test system is A549. Briefly: Induction of apoptosis in human A549 assessed as late apoptotic cells at 1 uM after 24 to 48 hrs by Annexin V/propidium iodide staining-based flow cytometric analysis (reference value: 0.54%). The experiment is classed as functional.

Structures are written as SMILES. Some results are limits rather than exact numbers.

As usually defined, the IC50 is the concentration needed to halve the response being measured.

Regarding `CCN(CC)c1ccc2cc(C(=O)c3ccc(N4CCN(C(=O)CN5CCN(Cc6ccc(/C=C/C(=O)OC)cc6)CC5)CC4)cc3)oc2c1`, in experiment [1], the viability at 1 µM came to 83.3%. For the same molecule, the Activity in [2] is 43.1%; in experiment [3], 0.82%; in experiment [6], “Dose-dependent effect”; in [7], 7.95%; in experiment [11], 43.8%; in experiment [12] it was 3.87%. Besides, in [15], the Activity is listed as 7.98%. In addition, the IC50 was 8.73 µM in [4]; 3.04 µM in experiment [8]; greater than 100 µM in [9]; 9.92 µM in experiment [10]; 0.74 µM in experiment [13]; 2.81 µM in [14]. Further, the viability at 2 µM in experiment [5] was determined as 9.27%.
